The source of these data is PubChem BioAssay (NCI).

Each structure is given as a SMILES string.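 Interpolation was linear, between the two tested concentrations surrounding the appropriate level; five concentrations were tested over 48 hours in 96-well plates. Definition used: TGI = concentration required for complete inhibition of growth.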 Where only a bound is given, the exact number is not on record here.

Some test systems named below: SR leukemia; COLO 205 colon; M14 melanoma; SNB-75 CNS; SN12C renal; SK-OV-3 ovarian; T-47D breast; OVCAR-5 ovarian; SF-539 CNS; HCC-2998 colon; HCT-15 colon; HT29 colon; OVCAR-3 ovarian; UO-31 renal; KM12 colon; 786-0 renal; OVCAR-4 ovarian; CCRF-CEM leukemia.
Test in all cases: NCI-60 cell line screen, 48 h

Take `CC(C)(C)OC(=O)NC(Cc1ccccc1)OCc1ccccc1` (stereo not given): the TGI is over 100 µM in the test with SR leukemia; over 100 µM in the test with COLO 205 colon; 39.7 µM with M14 melanoma; 25.4 µM in the test with SNB-75 CNS; 50.4 µM in the test with SN12C renal; 31.4 µM in the test on SK-OV-3 ovarian. The TGI is 39.8 µM in the test with T-47D breast; 58.2 µM in the test with OVCAR-5 ovarian; 39 µM in the test on SF-539 CNS; 43.7 µM with HCC-2998 colon; 36.1 µM with HCT-15 colon; 44.5 µM with HT29 colon. Further, the TGI in the test on OVCAR-3 ovarian was 49.3 µM; with UO-31 renal, 35.6 µM; with KM12 colon it was 37.4 µM; with 786-0 renal it was 31 µM.

With `COc1cc(/C=C/c2nc(NC(=S)Nc3ccccc3)nnc2C)cc(OC)c1OC`, the TGI is over 100 µM in the test on SR leukemia; 32.2 µM with COLO 205 colon; 76.4 µM in the test on OVCAR-4 ovarian; over 100 µM with M14 melanoma; 57.7 µM in the test on CCRF-CEM leukemia; over 100 µM in the test on SN12C renal. Also, the TGI with SK-OV-3 ovarian is over 100 µM; with T-47D breast it was 90.1 µM; in the test on OVCAR-5 ovarian, over 100 µM; in the test on HCC-2998 colon it was 26.4 µM; with HCT-15 colon, 37.1 µM; with HT29 colon it was 48.8 µM. Moreover, the figures for the TGI in the test with UO-31 renal, in the test with KM12 colon and with 786-0 renal were 67.7 µM, 27.6 µM and over 100 µM, respectively.

`O=C1OCC2OC(=O)c3cc(O)c(O)c(O)c3-c3c(O)c(O)c(O)c4c3C(=O)OC(C2OC(=O)c2cc(O)c(O)c(O)c2-c2c1cc(O)c(O)c2O)C1OC(=O)c2c-4c(O)c(O)c(O)c2[C@@H]1C(O)C(O)C(O)C(O)CO` (stereo not given in full): the TGI was over 100 µM in the test on SR leukemia; 30.4 µM in the test with COLO 205 colon; 41 µM in the test on OVCAR-4 ovarian; 39.4 µM in the test on M14 melanoma; 23.7 µM in the test on CCRF-CEM leukemia; 32.6 µM in the test with SN12C renal. The TGI with SK-OV-3 ovarian worked out at 59 µM; with T-47D breast it was 45.2 µM; with OVCAR-5 ovarian it was 33 µM; in the test with HCC-2998 colon, 64.2 µM; with HCT-15 colon, 37.7 µM; in the test with HT29 colon, 36 µM. In addition, the TGI with OVCAR-3 ovarian was found to be 80.6 µM; with UO-31 renal it was 33.8 µM; with KM12 colon, 52.3 µM; in the test with 786-0 renal, 34.7 µM.

On to `O=C1CCCN1C(=O)CS(=O)(=O)c1ccccc1`, for which the TGI with SR leukemia, in the test with COLO 205 colon, in the test on OVCAR-4 ovarian, in the test on M14 melanoma, in the test with CCRF-CEM leukemia and with SNB-75 CNS was over 100 µM each time. For the same molecule, the TGI with SN12C renal, in the test with SK-OV-3 ovarian, with T-47D breast, in the test on OVCAR-5 ovarian, in the test on HCC-2998 colon and in the test on HCT-15 colon was over 100 µM throughout. In addition, the TGI in the test with HT29 colon, with OVCAR-3 ovarian, in the test with UO-31 renal, in the test with KM12 colon and in the test with 786-0 renal was over 100 µM throughout.

Turning to `N#Cc1sc2c(c1OC(=O)c1ccccc1)c(=O)n(-c1ccccc1)c(=S)n2-c1ccccc1`, the TGI with SR leukemia is over 100 µM; in the test on COLO 205 colon, 34.2 µM; in the test on OVCAR-4 ovarian it was 80.7 µM; with M14 melanoma, 40.6 µM; in the test on CCRF-CEM leukemia, 61.6 µM; in the test on SN12C renal, 77.7 µM. The TGI was over 100 µM in the test with SK-OV-3 ovarian; 46.9 µM in the test with T-47D breast; 47.8 µM with SF-539 CNS; 68.9 µM with HCC-2998 colon; 39.4 µM in the test with HCT-15 colon; over 100 µM with HT29 colon. The TGI with OVCAR-3 ovarian was over 100 µM; in the test with UO-31 renal it was 35.6 µM; in the test on KM12 colon, 43.5 µM; with 786-0 renal, 85.1 µM.

Consider `O=C(NC1=C(Cl)C(=O)c2ccccc2C1=O)c1ccc(F)cc1`, for which the TGI in the test with SR leukemia is over 100 µM; in the test on COLO 205 colon, 8.33 µM; in the test with OVCAR-4 ovarian, 20 µM; in the test with M14 melanoma, 12.5 µM; in the test on SNB-75 CNS it was 22.1 µM; in the test on SN12C renal, 14.5 µM. For the same molecule, the TGI in the test with T-47D breast came out at 4.93 µM; in the test with OVCAR-5 ovarian, 16.5 µM; with SF-539 CNS, 18.7 µM; with HCC-2998 colon it was 15.1 µM; in the test on HCT-15 colon, 14.8 µM; in the test on HT29 colon it was 11.5 µM. Further, the results for the TGI in the test on OVCAR-3 ovarian, with KM12 colon and in the test on 786-0 renal were 12.3 µM, 12.5 µM and over 100 µM, respectively.

On to `COc1cc2c(c(OC)c1)/C(=C/Sc1ccccc1)C(=O)N(C(C)(C)C)C2`, for which the TGI is 66.7 µM in the test on SR leukemia; 50.6 µM with COLO 205 colon; over 100 µM in the test with OVCAR-4 ovarian; over 100 µM in the test on CCRF-CEM leukemia; 69 µM in the test with SN12C renal; 76.9 µM with SK-OV-3 ovarian. The TGI with T-47D breast was over 100 µM; in the test with OVCAR-5 ovarian, over 100 µM; in the test with SF-539 CNS, over 100 µM; with HCC-2998 colon it was over 100 µM; with HCT-15 colon, 91.9 µM; with HT29 colon, 75.1 µM. Besides, the TGI in the test with OVCAR-3 ovarian is 53.2 µM; in the test with KM12 colon it was 66.1 µM; with 786-0 renal, over 100 µM.
